Patent US20030134859A1 (SANKYO COMPANY, LIMITED, priority 2000, published 2003)
Read-outs that look alike come from different tables or passages of the source.

Experiments:
Rat white adipocytes = test: Inhibition of the differentiation of adipocytes (Oil Red O); format: cell-based; conditions: 100 nM test compound, 5 days, Oil Red O ABS550, control = 100%, blank = 0%, Table 3; for activity at 0.1 µM: Rattus norvegicus, Adipocyte, 120 h, read-out: Rate of Differentiation (%)
Method in brief: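 Rat white preadipocytes, 5,000 cells/well, given differentiation medium with compound at 100 nM final (0.1% DMSO) for 5 days at 37 °C. Lipid stained with Oil Red O, eluted in DMSO, read at 550 nm; differentiation % relative to DMSO control (100%) and blank (0%).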

leptin production = test: Enhancing activity for leptin production in adipocytes (ELISA); format: cell-based, rat; conditions: leptin concentration as % of control group; for activity at 1 µM / activity at 0.001 µM / activity at 0.01 µM / activity at 0.1 µM: Rattus norvegicus, Adipocyte, read-out: Facilitating activity to produce leptin; for activity at 0.001 µM: 1 nm; for activity at 0.01 µM: 10 nm
Method in brief: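 Leptin release, quantified by rat leptin ELISA, expressed as percent of 0.1% DMSO control after 24 h at 37 °C. Cells were floating adipocytes isolated by collagenase digestion of epididymal fat from male 6-week Wistar Imamichi rats; compound tested at 1 nM–1 µM final.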

N#Cc1cccc(NC(=O)c2cc([N+](=O)[O-])ccc2Cl)c1 [Example 21, N-(3-Cyanophenyl)-(2-chloro-5-nitrophenyl)carboxamide]
activity at 0.1 µM (Rat white adipocytes): 63%
activity at 1 µM (leptin production; 24 h, 1 μM): 130%
activity at 0.001 µM (leptin production; 24 h): 116%
activity at 0.01 µM (leptin production; 24 h): 120%
activity at 0.1 µM (leptin production; 24 h, 100 nm): 150%

O=C(Nc1ccc([N+](=O)[O-])cc1)c1cc([N+](=O)[O-])ccc1Cl [Example 23, N-(4-Nitrophenyl)-(2-chloro-5-nitrophenyl)carboxamide]
activity at 0.1 µM (Rat white adipocytes): 57.7%
activity at 1 µM (leptin production; 1 μM, 24 hr): 110%
activity at 0.001 µM (leptin production; 24 hr): 134%
activity at 0.01 µM (leptin production; 24 hr): 138%
activity at 0.1 µM (leptin production; 100 nm, 24 hr): 158%

O=C(Nc1ccc([N+](=O)[O-])cn1)c1cc([N+](=O)[O-])ccc1Cl [Example 24, N-(5-Nitropyridin-2-yl)-(2-chloro-5-nitrophenyl)carboxamide]
activity at 0.1 µM (Rat white adipocytes): 59.1%
activity at 1 µM (leptin production; 1 μM, 24 hr): 144%
activity at 0.001 µM (leptin production; 24 hr): 112%
activity at 0.01 µM (leptin production; 24 hr): 121%
activity at 0.1 µM (leptin production; 100 nm, 24 hr): 143%

O=C(Nc1cccc([N+](=O)[O-])c1)c1cc([N+](=O)[O-])ccc1Cl [Example 25, N-(3-Nitrophenyl)-(2-chloro-5-nitrophenyl)carboxamide]
activity at 0.1 µM (Rat white adipocytes): 84%
activity at 0.001 µM (leptin production; 24 hr): 113%
activity at 0.01 µM (leptin production; 24 hr): 118%
activity at 0.1 µM (leptin production; 100 nm, 24 hr): 156%

O=C(Nc1cc([N+](=O)[O-])ccc1Cl)c1cc([N+](=O)[O-])ccc1Cl [Example 28, N-(2-Chloro-5-nitrophenyl)-(2-chloro-5-nitrophenyl)carboxamide]
activity at 1 µM (leptin production; 1 μM, 24 hr): 108%
activity at 0.1 µM (leptin production; 100 nm, 24 hr): 120%

O=C(Nc1cccc(C(=O)N2CCCC2)c1)c1cc([N+](=O)[O-])ccc1Cl [Example 31]
Rate of Differentiation (%) (Rat white adipocytes): 77.2%
Facilitating activity to produce leptin (leptin production; 100 nm, 24 hr): 116.9%

O=C(Nc1nc(-c2cccs2)cs1)c1cc([N+](=O)[O-])ccc1Cl [Example 36, N-[4-(2-Thienyl)thiazol-2-yl)-(2-chloro-5-nitrophenyl)carboxamide]
activity at 0.1 µM (leptin production; 24 h, 100 nm): 120%

O=C(Nc1nc(-c2ccc3ccccc3c2)cs1)c1cc([N+](=O)[O-])ccc1Cl [Example 42, N-[4-(2-Naphthyl)thiazol-2-yl)-(2-chloro-5-nitrophenyl)carboxamide]
activity at 1 µM (leptin production; 24 h, 1 μM): 127%

O=C(Nc1nc(-c2ccc(Cl)c(Cl)c2)cs1)c1cc([N+](=O)[O-])ccc1Cl [Example 43, N-[4-(3,4-Dichlorophenyl)thiazol-2-yl]-(2-chloro-5-nitrophenyl)carboxamide]
activity at 1 µM (leptin production; 24 h, 1 μM): 111%
activity at 0.1 µM (leptin production; 24 h, 100 nm): 112%

O=C(Nc1ccncc1)c1cc([N+](=O)[O-])ccc1Cl [Example 49, N-(4-Pyridyl)-(2-chloro-5-nitrophenyl)carboxamide]
activity at 0.1 µM (Rat white adipocytes): 71%
activity at 1 µM (leptin production; 24 h, 1 μM): 121%
activity at 0.01 µM (leptin production; 24 h): 131%
activity at 0.1 µM (leptin production; 24 h, 100 nm): 133%

O=C(Nc1cnc2ccccc2c1)c1cc([N+](=O)[O-])ccc1Cl [Example 55, N-(3-Quinolinyl)-(2-chloro-5-nitrophenyl)carboxamide]
activity at 0.001 µM (leptin production; 24 h): 116%
activity at 0.01 µM (leptin production; 24 h): 115%
activity at 0.1 µM (leptin production; 24 h, 100 nm): 113%

O=C(Nc1ccc(Cl)nc1)c1cc([N+](=O)[O-])ccc1Cl [Example 62, N-(6-Chloropyridin-3-yl)-(2-chloro-5-nitrophenyl)carboxamide]
activity at 0.1 µM (Rat white adipocytes): 68.5%
activity at 0.001 µM (leptin production; 24 h): 119%
activity at 0.01 µM (leptin production; 24 h): 115%
activity at 0.1 µM (leptin production; 24 h, 100 nm): 132%

O=C(Nc1ccc(NC(=O)c2cc([N+](=O)[O-])ccc2Cl)nc1)c1cc([N+](=O)[O-])ccc1Cl [Example 64, 2,5-bis(2-Chloro-5-nitrobenzoylamino)pyridine]
activity at 0.1 µM (Rat white adipocytes): 85.5%
activity at 0.001 µM (leptin production; 24 hr): 110%
activity at 0.01 µM (leptin production; 24 hr): 112%
activity at 0.1 µM (leptin production; 100 nm, 24 hr): 119%

O=C(Nc1nc2cc(Cl)ccc2o1)c1cc([N+](=O)[O-])ccc1Cl [Example 75, N-(5-Chlorobenzoxazol-2-yl)-(2-chloro-5-nitrophenyl)carboxamide]
activity at 0.1 µM (Rat white adipocytes): 88.6%
activity at 0.1 µM (leptin production; 24 h, 100 nm): 118%

O=C(Nc1ncc(Br)cn1)c1cc([N+](=O)[O-])ccc1Cl [Example 77, N-(5-Bromopyrimidin-2-yl)-(2-chloro-5-nitrophenyl)carboxamide]
activity at 0.1 µM (Rat white adipocytes): 68%
activity at 1 µM (leptin production; 24 h, 1 μM): 113%
activity at 0.001 µM (leptin production; 24 h): 108%
activity at 0.01 µM (leptin production; 24 h): 110%
activity at 0.1 µM (leptin production; 24 h, 100 nm): 130%

O=C(Nc1nc(Cl)cc(Cl)n1)c1cc([N+](=O)[O-])ccc1Cl [Example 83, N-(4,6-Dichloropyrimidin-2-yl)-(2-chloro-5-nitrophenyl)carboxamide]
activity at 0.1 µM (leptin production; 24 h, 100 nm): 126%

O=C(Nc1ccc(Cl)nn1)c1cc([N+](=O)[O-])ccc1Cl [Example 89]
Facilitating activity to produce leptin (leptin production; 100 nm, 24 hr): 123.2%

Cc1c(C)c2c(c(C)c1O)C(=O)CC(C)(COc1ccc(NC(=O)c3cc([N+](=O)[O-])ccc3Cl)cc1)O2 (stereo not drawn) [Example 92, N-[4-(6-Hydroxy-2,5,7,8-tetramethyl-4-oxochroman-2-ylmethoxy)phenyl]-(2-chloro-5-nitrophenyl)carboxamide]
activity at 0.1 µM (leptin production; 24 h, 100 nm): 116%

Cc1nnc(NS(=O)(=O)c2ccc(NC(=O)c3cc([N+](=O)[O-])ccc3Cl)cc2)s1 [Example 101, N-[4-[(5-Methyl-[1,3,4]thiadiazol-2-yl)aminosulfonyl]phenyl]-(2-chloro-5-nitrophenyl)carboxamide]
activity at 1 µM (leptin production; 24 h, 1 μM): 117%

Cc1ccc(C(=O)Nc2ccc(NC(=O)c3cc([N+](=O)[O-])ccc3Cl)cc2)cc1 [Example 121, N-[4-(4-Methylbenzoyl)aminophenyl]-(2-chloro-5-nitrophenyl)carboxamide]
activity at 0.1 µM (leptin production; 24 h, 100 nm): 114%

O=C(Nc1ccc(NS(=O)(=O)c2ccccc2)cc1)c1cc([N+](=O)[O-])ccc1Cl [Example 127, N-(4-Benzenesulfonylaminophenyl)-(2-chloro-5-nitrophenyl)carboxamide]
activity at 1 µM (leptin production; 24 h, 1 μM): 115%

O=C(Nc1cnccn1)c1cc([N+](=O)[O-])ccc1Cl [Example 140, N-(Pyrazin-2-yl)-(2-chloro-5-nitrophenyl)carboxamide]
activity at 0.1 µM (leptin production; 24 h, 100 nm): 114%

O=C(Nc1ccc(S(=O)(=O)N2CCCCC2)cc1)c1cc([N+](=O)[O-])ccc1Cl [Example 151, N-[4-(Piperidyisulfonyl)phenyl]-(2-chloro-5-nitrophenyl)carboxamide]
activity at 1 µM (leptin production; 24 h, 1 μM): 113%
activity at 0.1 µM (leptin production; 24 h, 100 nm): 113%

O=C(Nc1ccc(S(=O)(=O)N2CCOCC2)cc1)c1cc([N+](=O)[O-])ccc1Cl [Example 153, N-[4-(Morpholin-4-ylsulfonyl)phenyl]-(2-chloro-5-nitrophenyl)carboxamide]
activity at 1 µM (leptin production; 24 h, 1 μM): 113%

CC(=O)c1cccc(NC(=O)c2cc([N+](=O)[O-])ccc2Cl)c1 [Example 156, N-(3-Acetylphenyl)-(2-chloro-5-nitrophenyl)carboxamide]
activity at 1 µM (leptin production; 24 h, 1 μM): 112%
activity at 0.1 µM (leptin production; 24 h, 100 nm): 118%

CC(C)(C)c1cc(NS(=O)(=O)c2cccc(NC(=O)c3cc([N+](=O)[O-])ccc3Cl)c2)cc(C(C)(C)C)c1O [Example 161, N-[3-[(3,5-di-tert-Butyl-4-hydroxyphenyl)aminosulfonyl]phenyl]-(2-chloro-5-nitrophenyl)carboxamide]
activity at 1 µM (leptin production; 24 h, 1 μM): 131%

CCCN(CCC)c1ccc(NC(=O)c2cc([N+](=O)[O-])ccc2Cl)cc1 [Example 182, N-[4-(N,N-Dipropylamino)phenyl]-(2-chloro-5-nitrophenyl)carboxamide]
activity at 0.01 µM (leptin production; 24 h): 110%
activity at 0.1 µM (leptin production; 24 h, 100 nm): 112%

CCCCCCN(CC)c1ccc(NC(=O)c2cc([N+](=O)[O-])ccc2Cl)cc1 [Example 188, N-[4-(N-Ethyl-N-hexylamino)phenyl]-(2-chloro-55 nitrophenyl)carboxamide]
activity at 0.001 µM (leptin production; 24 h): 110%

CC(C)(C)OC(=O)Nc1ccc(-c2csc(NC(=O)c3cc([N+](=O)[O-])ccc3Cl)n2)cc1 [Example 190, N-[4-(4-tert-Butoxycarbonylaminophenyl)thiazol-2-yl]-(2-chloro-5-nitrophenyl)carboxamide]
activity at 0.1 µM (Rat white adipocytes): 64.2%

CCCN(CCC)c1ccc(-c2ccc(NC(=O)c3cc([N+](=O)[O-])ccc3Cl)cc2)cc1 [Example 194, N-[4-[4-(N,N-Dipropylamino)phenyl]phenyl]-(2-chloro-5-nitrophenyl)carboxamide]
activity at 0.1 µM (Rat white adipocytes): 37.1%

CCN(C)c1ccc(-c2ccc(NC(=O)c3cc([N+](=O)[O-])ccc3Cl)cc2)cc1 [Example 218, N-[4-[4-(N-Ethyl-N-methylamino)phenyl]phenyl]-(2-chloro-5-nitrophenyl)carboxamide]
activity at 0.1 µM (Rat white adipocytes): 31.7%

O=C(Nc1nc(-c2ccc([N+](=O)[O-])cc2)cs1)c1cc([N+](=O)[O-])ccc1Cl [Example 246, N-[4-(4-Nitrophenyl)thiazol-2-yl]-(2-chloro-5-nitrophenyl)carboxamide]
activity at 0.01 µM (leptin production; 24 hr): 111%
activity at 0.1 µM (leptin production; 100 nm, 24 hr): 113%

N-[3-(Pyrrolidinylsulfonyl)phenyl]-(2-chloro-5-nitrophenyl)carboxamide [Example 154]
Facilitating activity to produce leptin (leptin production; 1 μM, 24 hr): 116.9%
Facilitating activity to produce leptin (leptin production; 100 nm, 24 hr): 109.5%
